Where a SMILES comes first, the peptide text is derived from it.
Columns and labels:
HELA cells (Acc57) = assay: Cytotoxicity assay (MTT reduction), HELA cells; assay type: cell-based; conditions: Hela cells
Protocol: The cytotoxicity of the peptides to HELA cells (Acc57) and COS-7 cells (CRL-1651) was determined using the MTT reduction assay [see ref. 2 and 3, below]. Briefly the method was as follows: HELA cells and COS-7 cells were seeded at 7.0×10^3 and, respectively, 4.5×10^3 cells per well and grown in 96-well microtiter plates for 24 hours at 37° C. at 5% CO2. At this point, time zero (Tz) was determined by MTT reduction (see below). The supernatant of the remaining wells was discarded, and fresh medium and the peptides in serial dilutions of 12.5, 25 and 50 μM were pipetted into the wells. Each peptide concentration was assayed in triplicate. Incubation of the cells was continued for 48 hours at 37° C. at 5% CO2. Wells were then washed once with phosphate buffered saline (PBS) and subsequently 100 μl MTT reagent (0.5 mg/ml in medium RPMI1640 and, respectively, DMEM) were added to the wells. This was incubated at 37° C. for 2 hours and subsequently the medium was aspirated and 100 μl isopropanol were added to each well. The absorbance at 595 nm of the solubilized product was measured (OD595peptide). For each concentration averages were calculated from triplicates. The percentage of growth was calculated as follows: (OD595peptide-OD595Tz-OD595Empty well)/(OD595Tz-OD595Empty well)×100% and was plotted for each peptide concentration.
The LC 50 values (Lethal Concentration, defined as the concentration that kills 50% of the cells) were determined for each peptide by using the trend line function of EXCEL (Microsoft Office 2000) for the concentrations (50, 25, 12.5 and 0 μM), the corresponding growth percentages and the value −50, (=TREND(C50:C0,%50:%0,−50)).
The GI 50 (Growth Inhibition) concentrations were calculated for each peptide by using a trend line function for the concentrations (50, 25, 12.5 and 0 μg/ml), the corresponding percentages and the value 50, (=TREND (C50:C0,%50:%0,50).

[1] = tested on: Tryptase, from human lung; assay: Enzymatic assay, tryptase; conditions: at 100 μM
[2] = molecular target: Coagulation Factor Xa, from uman plasma (Homo sapiens, UniProt P00742); assay: Enzymatic assay, coagulation factor Xa
[3] = molecular target: T1, CathepsinG, from human neutrophils (Homo sapiens, UniProt P08311); assay: Enzymatic assay, cathepsin G; conditions: Cathepsin G IC50
T1 sequence (P08311 21-244): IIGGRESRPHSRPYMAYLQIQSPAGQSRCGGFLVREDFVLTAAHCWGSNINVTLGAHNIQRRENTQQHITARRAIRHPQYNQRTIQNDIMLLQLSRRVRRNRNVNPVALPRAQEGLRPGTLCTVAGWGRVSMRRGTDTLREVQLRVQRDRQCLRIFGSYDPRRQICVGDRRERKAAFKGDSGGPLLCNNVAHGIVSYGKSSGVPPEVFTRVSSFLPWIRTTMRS

[4] = molecular target: Urokinase from human urine (Homo sapiens, UniProt P00749); assay: Enzymatic assay, urokinase
[5] = molecular target: Chymotrypsin, from human pancreas (Homo sapiens, UniProt P17538); assay: Enzymatic assay, chymotrypsin
[6] = molecular target: T2, Elastase from human neutrophils (Homo sapiens, UniProt P08246); assay: Enzymatic assay, elastase; conditions: Elastase IC50
T2 sequence (P08246 30-267): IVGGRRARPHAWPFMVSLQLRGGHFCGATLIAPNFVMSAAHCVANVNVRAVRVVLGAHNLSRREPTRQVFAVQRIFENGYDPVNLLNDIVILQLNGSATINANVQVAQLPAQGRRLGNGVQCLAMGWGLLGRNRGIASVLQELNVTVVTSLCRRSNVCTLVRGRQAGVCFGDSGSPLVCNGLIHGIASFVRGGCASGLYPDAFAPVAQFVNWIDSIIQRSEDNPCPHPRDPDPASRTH

Chymase, from human skin = molecular target: T3, Chymase, from human skin (Homo sapiens, UniProt P23946); assay: Enzymatic assay, chymase
T3 sequence (P23946 22-247): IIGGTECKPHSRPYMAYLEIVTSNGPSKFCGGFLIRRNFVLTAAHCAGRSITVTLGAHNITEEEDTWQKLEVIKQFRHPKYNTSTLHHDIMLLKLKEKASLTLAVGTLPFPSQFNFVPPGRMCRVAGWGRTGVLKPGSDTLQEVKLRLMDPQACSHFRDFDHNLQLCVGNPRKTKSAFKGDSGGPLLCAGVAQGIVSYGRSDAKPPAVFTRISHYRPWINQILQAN

[7] = molecular target: Trypsin, from human pancreas (Homo sapiens, UniProt P07477); assay: Enzymatic assay, trypsin; conditions: at 100 μM
[8] = molecular target: Thrombin, from Human Plasma (Homo sapiens, UniProt P00734); assay: Enzymatic assay, thrombin

Sequence of Coagulation Factor Xa, from uman plasma (P00742 235-488 limits assumed): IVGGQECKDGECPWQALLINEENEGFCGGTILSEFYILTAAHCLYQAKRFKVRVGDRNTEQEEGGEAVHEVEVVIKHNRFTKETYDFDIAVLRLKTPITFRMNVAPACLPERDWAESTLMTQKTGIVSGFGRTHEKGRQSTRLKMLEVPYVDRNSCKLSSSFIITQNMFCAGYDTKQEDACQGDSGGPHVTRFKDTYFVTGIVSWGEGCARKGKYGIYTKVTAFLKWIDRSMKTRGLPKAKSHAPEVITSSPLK
Sequence of Coagulation Factor Xa, from uman plasma (P00742 41-179 limits assumed): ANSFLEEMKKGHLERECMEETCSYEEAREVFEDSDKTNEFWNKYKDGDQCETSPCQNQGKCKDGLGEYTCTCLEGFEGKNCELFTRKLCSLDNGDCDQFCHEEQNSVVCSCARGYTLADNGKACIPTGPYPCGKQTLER
Sequence of Chymotrypsin, from human pancreas (P17538 19-263): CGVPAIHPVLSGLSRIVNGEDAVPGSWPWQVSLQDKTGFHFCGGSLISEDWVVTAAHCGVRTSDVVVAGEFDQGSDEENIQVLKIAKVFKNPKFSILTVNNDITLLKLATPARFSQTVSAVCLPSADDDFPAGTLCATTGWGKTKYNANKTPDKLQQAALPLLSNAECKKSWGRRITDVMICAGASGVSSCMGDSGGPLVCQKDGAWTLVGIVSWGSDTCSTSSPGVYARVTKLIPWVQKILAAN

Compound	Cytotoxicity LC50/GI50 Hela cells (HELA cells (Acc57))	Tryptase at 100 μM % [1]	FXa at 100 μM % [2]	IC50 [3]	Urokinase at 100 μM % [4]	IC50 [5]	IC50 [6]	Chymase at 100 μM % (Chymase, from human skin)	Trypsin at 100 μM % [7]	Thrombin at 100 μM % [8]
CCCC[C@@H]1NC(=O)[C@@H]2CCCN2C(=O)[C@H]2CCCN2C(=O)[C@H](Cc2ccc3ccccc3c2)NC(=O)[C@@H]2CSSC[C@H](NC1=O)C(=O)N[C@@H]([C@@H](C)O)C(=O)N[C@@H](C)C(=O)N[C@@H](CO)C(=O)N[C@@H]([C@@H](C)CC)C(=O)N1CCC[C@H]1C(=O)N1CCC[C@H]1C(=O)N[C@@H](CCC(N)=O)C(=O)N2 [Ex. 95] (HELM PEPTIDE1{[Nle].C.T.A.S.I.P.P.Q.C.[O=C([C@H](Cc1ccc2ccccc2c1)N[*:1])[*:2]].[dP].P}$PEPTIDE1,PEPTIDE1,2:R3-10:R3|PEPTIDE1,PEPTIDE1,1:R1-13:R2$$$V2.0)	89 µM	0%	11.3%	38.7 µM	10.3%	33.7 µM	0.024 µM	0%	8.9%	0%
CCCC[C@@H]1NC(=O)[C@@H]2CCCN2C(=O)[C@H]2CCCN2C(=O)[C@H](Cc2ccccc2Cl)NC(=O)[C@@H]2CSSC[C@H](NC1=O)C(=O)N[C@@H]([C@@H](C)O)C(=O)N[C@@H](C)C(=O)N[C@@H](CO)C(=O)N[C@@H]([C@@H](C)CC)C(=O)N1CCC[C@H]1C(=O)N1CCC[C@H]1C(=O)N[C@@H](CCC(N)=O)C(=O)N2 [Ex. 96] (HELM PEPTIDE1{[Nle].C.T.A.S.I.P.P.Q.C.[O=C([C@H](Cc1ccccc1Cl)N[*:1])[*:2]].[dP].P}$PEPTIDE1,PEPTIDE1,2:R3-10:R3|PEPTIDE1,PEPTIDE1,1:R1-13:R2$$$V2.0)	52 µM	0%	0%	21.2 µM	6.2%	15.4 µM	0.015 µM	0%	7.5%	3.6%
CCCC[C@@H]1NC(=O)[C@@H]2CCCN2C(=O)[C@H]2CCCN2C(=O)[C@H](CC2CCCCC2)NC(=O)[C@@H]2CSSC[C@H](NC1=O)C(=O)N[C@@H]([C@@H](C)O)C(=O)N[C@@H](C)C(=O)N[C@@H](CO)C(=O)N[C@@H]([C@@H](C)CC)C(=O)N1CCC[C@H]1C(=O)N1CCC[C@H]1C(=O)N[C@@H](CCC(N)=O)C(=O)N2 [Ex. 97] (HELM PEPTIDE1{[Nle].C.T.A.S.I.P.P.Q.C.[Cha].[dP].P}$PEPTIDE1,PEPTIDE1,2:R3-10:R3|PEPTIDE1,PEPTIDE1,1:R1-13:R2$$$V2.0)	100 µM	0%	4.8%	> 100 µM	11.9%	77.4 µM	0.024 µM	0%	9.5%	11.6%
CCCC[C@@H]1NC(=O)[C@@H]2CCCN2C(=O)[C@H]2CCCN2C(=O)[C@H](c2ccccc2)NC(=O)[C@@H]2CSSC[C@H](NC1=O)C(=O)N[C@@H]([C@@H](C)O)C(=O)N[C@@H](C)C(=O)N[C@@H](CO)C(=O)N[C@@H]([C@@H](C)CC)C(=O)N1CCC[C@H]1C(=O)N1CCC[C@H]1C(=O)N[C@@H](CCC(N)=O)C(=O)N2 [Ex. 98] (HELM PEPTIDE1{[Nle].C.T.A.S.I.P.P.Q.C.[Phg].[dP].P}$PEPTIDE1,PEPTIDE1,2:R3-10:R3|PEPTIDE1,PEPTIDE1,1:R1-13:R2$$$V2.0)	78 µM	0%	0%	> 100 µM	0%	38.8 µM	0.021 µM	0%	0%	5.2%
CCCCCC[C@@H]1NC(=O)[C@@H]2CCCN2C(=O)[C@H]2CCCN2C(=O)[C@H](Cc2ccc(O)cc2)NC(=O)[C@@H]2CSSC[C@H](NC1=O)C(=O)N[C@@H]([C@@H](C)O)C(=O)N[C@@H](C)C(=O)N[C@@H](CO)C(=O)N[C@@H]([C@@H](C)CC)C(=O)N1CCC[C@H]1C(=O)N1CCC[C@H]1C(=O)N[C@@H](CCC(N)=O)C(=O)N2 [Ex. 99] (HELM PEPTIDE1{[CCCCCC[C@H](N[*:1])C(=O)[*:2]].C.T.A.S.I.P.P.Q.C.Y.[dP].P}$PEPTIDE1,PEPTIDE1,2:R3-10:R3|PEPTIDE1,PEPTIDE1,1:R1-13:R2$$$V2.0)	58 µM	0%	0%	85.2 µM	17.4%	8.56 µM	0.016 µM	0%	30.5%	0%
CCCCCCCC[C@@H]1NC(=O)[C@@H]2CCCN2C(=O)[C@H]2CCCN2C(=O)[C@H](Cc2ccc(O)cc2)NC(=O)[C@@H]2CSSC[C@H](NC1=O)C(=O)N[C@@H]([C@@H](C)O)C(=O)N[C@@H](C)C(=O)N[C@@H](CO)C(=O)N[C@@H]([C@@H](C)CC)C(=O)N1CCC[C@H]1C(=O)N1CCC[C@H]1C(=O)N[C@@H](CCC(N)=O)C(=O)N2 [Ex. 102] (HELM PEPTIDE1{[CCCCCCCC[C@H](N[*:1])C(=O)[*:2]].C.T.A.S.I.P.P.Q.C.Y.[dP].P}$PEPTIDE1,PEPTIDE1,2:R3-10:R3|PEPTIDE1,PEPTIDE1,1:R1-13:R2$$$V2.0)	55 µM	0%	0%	> 100 µM	0.5%	4.98 µM	0.013 µM	0%	0%	1.7%
CC[C@H](C)[C@@H]1NC(=O)[C@H](CO)NC(=O)[C@H](C)NC(=O)[C@H]([C@@H](C)O)NC(=O)[C@@H]2CSSC[C@H](NC(=O)[C@H](CCC(N)=O)NC(=O)[C@@H]3CCCN3C(=O)[C@@H]3CCCN3C1=O)C(=O)N[C@@H](Cc1ccc(O)cc1)C(=O)N1CCC[C@@H]1C(=O)N1CCC[C@H]1C(=O)N[C@@H](CCc1ccccc1)C(=O)N2 [Ex. 103] (HELM PEPTIDE1{[O=C([C@H](CCc1ccccc1)N[*:1])[*:2]].C.T.A.S.I.P.P.Q.C.Y.[dP].P}$PEPTIDE1,PEPTIDE1,2:R3-10:R3|PEPTIDE1,PEPTIDE1,1:R1-13:R2$$$V2.0)	47 µM	0.6%	3%	> 100 µM	9.6%	4.31 µM	0.018 µM	0%	6.4%	10.2%
